A short description of this series: solubility in rubber mixtures. The series is classed as physicochemical. Conditions: in particular for vehicle tires and other technical rubber articles.

The results in this text go back to patent US20250100969A1, “COMPOUND, RUBBER BLEND CONTAINING THE COMPOUND, VEHICLE TIRE COMPRISING THE RUBBER BLEND IN AT LEAST ONE COMPONENT, PROCESS FOR PRODUCING THE COMPOUND, AND USE OF THE COMPOUND AS AN AGE RESISTOR AND/OR ANTIOXIDANT” (Continental Reifen Deutschland GmbH, priority 2021, published 2025).

As to `CC(C)CC(C)Nc1ccc2[nH]c3ccccc3c2c1` (stereo not shown) [compound according to the invention, N-(1,3-dimethylbutyl)-9H-carbazol-3-amine], the “solubility in rubber mixtures” value was “very good”.
